The values that follow come from patent US20060209305A1, “Biosensor” (FUJI PHOTO FILM CO., LTD., priority 2005, published 2006).

The assay has as its system Carbonic Anhydrase. Nature of the assay: Evaluation of Hydrochlorothiazide binding capacity by surface plasmon resonance on CA captured on an Anti-CA-immobilized chip. The following applies: two minutes after start of replacement. How it is done:
The following experiment was carried out using a device shown in FIG. 22 of Japanese Patent Laid-Open No. 2001-330560 (hereinafter referred to as the surface plasmon resonance measurement device of the present invention) (shown in FIG. 1 of the present specification) and a dielectric block shown in FIG. 23 of Japanese Patent Laid-Open No. 2001-330560 (hereinafter referred to as the dielectric block of the present invention) (shown in FIG. 2 of the present specification).
After solutions were removed from the above dextran measuring chip, 70 μl of a mixture solution of 200 mM EDC (N-ethyl-N′-(3-dimethylaminopropyl)carbodiimide hydrochloride) and 50 mM NHS (N-hydroxysuccinimide) was added and the chip was then allowed to stand for 10 minutes. After the mixture solution was removed, the chip was washed three times with 100 μl of water and three times with 100 μl of Acetate 4.5 buffer (produced by Biacore). The chip filled with 100 μl of Acetate 4.5 buffer was set on the surface plasmon resonance measurement device of the present invention. The inside of the chip was replaced with anti-Carbonic Anhydrase antibody (hereafter referred to as Anti-CA, which was purchased from COSMO BIO Co., Ltd.(NOR)) solution (dissolved in Acetate 4.5 (produced by BIAcore) to […]), and the chip was allowed to stand for 30 minutes for immobilizing the Anti-CA. The inside of the chip was then replaced with 1M ethanolamine solution, and the chip was allowed to stand for 10 minutes. The inside of the chip was washed ten times with 100 μl of Acetate 4.5 buffer, thereby preparing an Anti-CA-immobilized chip. The amount of change in resonance signal due to Anti-CA immobilization was 15,000RU. After the measurement of the signal change, the inside of the Anti-CA-immobilized chip was washed three times with 100μl of 1×PBS (pH7.4) buffer (Wako Pure Chemical Industries, Ltd.).
The dielectric block of the Anti-CA-immobilized chip was then capped with a silicon rubber, thereby preparing a cell with an inner volume of 15 μl. Also, a fluid channel system was prepared by making two 1-mm φ holes in the silicon rubber cap and putting a teflon tube (registered trademark) with an internal diameter of 0.5 mm and an external diameter of 1 mm through the holes. Individual chips with such fluid channel system were set on the surface plasmon resonance measurement device of the present invention.
The inside of the fluid channel system was filled with 1×PBS (pH7.4) buffer. Signal changes were measured at 0.5 seconds intervals with reference to the signal prior to the replacement of the fluid. The inside of the fluid channel system was then replaced with Carbonic Anhydrase (produced by SIGMA, hereinafter referred to as CA) solution (dissolved in 1×PBS (pH7.4) to 100 μg/ml). When the binding signal reached 3,000RU, the inside was replaced with Hydrochlorothiazide (produced by SIGMA) solution (dissolved in 1×PBS (pH7.4) to 50 μM) by the individual methods indicated in Table 1. […] In order to obtain highly reliable data, it is preferable that the compound binding detection signal be 5RU or more.

For `NS(=O)(=O)c1cc2c(cc1Cl)NCNS2(=O)=O` [Hydrochlorothiazide], the Signal change is recorded as 15 RU (Method No. 1 (Example): 50 μM in 1×PBS pH7.4, fluid 100 μl, flow 100 μl/sec, replacement 1 sec, stop 119 sec); 12 RU (Method No. 2 (Example): 50 μM in 1×PBS pH7.4, fluid 100 μl, flow 10 μl/sec, replacement 10 sec, stop 110 sec); 10 RU (Method No. 3 (Example): 50 μM in 1×PBS pH7.4, fluid 150 μl, flow 5 μl/sec, replacement 30 sec, stop 90 sec); 10 RU (Method No. 4 (Example): 50 μM in 1×PBS pH7.4, fluid 200 μl, flow 20 μl/sec, replacement 10 sec, stop 110 sec); −1 RU (Method No. 5 (Comparative example): 50 μM in 1×PBS pH7.4, fluid 300 μl, flow 2.5 μl/sec, replacement 120 sec, stop 0 sec); −4 RU (Method No. 6 (Comparative example): 50 μM in 1×PBS pH7.4, fluid 600 μl, flow 5 μl/sec, replacement 120 sec, stop 0 sec). For the same compound, the Signal change (Method No. 7 (Comparative example): 50 μM in 1×PBS pH7.4, fluid 1200 μl, flow 10 μl/sec, replacement 120 sec, stop 0 sec) is −10 RU and the Signal change (Method No. 8 (Comparative example): 50 μM in 1×PBS pH7.4, fluid 2400 μl, flow 20 μl/sec, replacement 120 sec, stop 0 sec) is −20 RU.
